Measurements as given in BindingDB's records for doi:10.1016/j.bmc.2013.10.054 (Punjabi University, 2014).
pIC50: −log10 of the molar value.

Target: T1, P2X purinoceptor 7 (Homo sapiens, UniProt Q99572)
T1 sequence (Q99572 whole entry): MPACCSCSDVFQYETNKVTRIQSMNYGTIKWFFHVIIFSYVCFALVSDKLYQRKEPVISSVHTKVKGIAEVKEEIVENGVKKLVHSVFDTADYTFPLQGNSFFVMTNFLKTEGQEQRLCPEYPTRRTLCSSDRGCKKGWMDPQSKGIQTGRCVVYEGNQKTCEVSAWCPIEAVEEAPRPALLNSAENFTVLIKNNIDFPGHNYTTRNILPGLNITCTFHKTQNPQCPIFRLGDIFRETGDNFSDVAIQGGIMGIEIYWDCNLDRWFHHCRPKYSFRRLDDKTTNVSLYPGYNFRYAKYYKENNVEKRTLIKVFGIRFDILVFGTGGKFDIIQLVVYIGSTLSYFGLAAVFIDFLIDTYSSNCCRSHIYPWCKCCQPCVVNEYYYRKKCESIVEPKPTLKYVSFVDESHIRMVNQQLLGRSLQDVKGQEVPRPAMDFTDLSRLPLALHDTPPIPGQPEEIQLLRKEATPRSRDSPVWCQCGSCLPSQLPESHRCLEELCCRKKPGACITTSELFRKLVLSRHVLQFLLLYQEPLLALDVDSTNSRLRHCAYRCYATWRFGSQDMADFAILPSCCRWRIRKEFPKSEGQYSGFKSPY
Assay: Antagonist activity at P2X7 receptor (unknown origin)

pIC50: > 6.00
SMILES: O=C(Cn1cc(O)n(-c2ccccc2)c1=O)NCc1ccc(F)cc1Cl
